Results: patent US5792796A, “Methods for treating anxiety and panic” (Warner-Lambert Company, priority 1995, dated 1998)

Columns and labels:
[1] = in vivo; cited from earlier work
[2] = system: glycine/NMDA receptor; conditions: previous radioligand binding studies; cited from earlier work
[3] = system: rats; assay: Rat conflict test
Procedure: Male Hooded Lister rats (200-250 g) were obtained from Interfauna (Huntingdon, UK) and male TO mice (20-25 g) were obtained from Bantin and Kingman (Hull, UK). Both rodent species were housed in groups of six. Ten Common Marmosets (Callithrix Jacchus) weighing between 280 and 360 g, bred at Manchester University Medical School (Manchester, UK) were housed in pairs. All animals were housed under a 12-hour light/dark cycle (lights on at 07.00 hour) and with food and water ad libitum.
Rats were trained to press levers for food reward in operant chambers. The schedule consisted of alternations of four 4-minute unpunished periods on variable interval of 30 seconds signalled by chamber lights on and three 3-minute punished periods on fixed ratio 5 (by footshock concomitant to food delivery) signalled by chamber lights off. The degree of footshock was adjusted for each rat to obtain approximately 80% to 90% suppression of responding in comparison with unpunished responding. Rats received saline vehicle on training days.
The results are expressed as mean percent increase or decrease of lever pressing (vertical bars represent ±SEM) of at least 5 animals per group on test day compared with mean performances obtained the 2 previous days following vehicle administration.
*p <0.05, **p <0.01 (paired Student t-test).

[4] = in vivo; cited from earlier work; remark: listed apart in the source

SMILES	metabolism in the body [1]	binding to the glycine/NMDA receptor [2]	reduction in lever pressing in the unpunished period (indicating sedation/ataxia) ([3]; 100 mg/kg (highest dose tested)) [%]	penetration of the blood-brain barrier [4]	increase in lever pressing in the punished period ([3]; 3 mg/kg (minimum effective dose), 40 minutes before test) [%]	maximal effect, increase in lever pressing in the punished period ([3]; 30 mg/kg, 40 minutes before test) [%]	minimal effective dose ([3]; Rattus norvegicus, 40 min, read-out: minimum effective dose (MED) for increased lever pressing in the punished period) [mg/kg]	unpunished responding ([3]; any of the doses tested (1-100 mg/kg))
NCC1(CC(=O)O)CCCCC1 [gabapentin, 1-(aminomethyl)cyclohexaneacetic acid]	not metabolized	does not bind	37.4	readily penetrates				
CNC1=Nc2ccc(Cl)cc2C(c2ccccc2)=[N+]([O-])C1 [chlordiazepoxide]					128.4	330.0	3	not reduced
